Reference: the supplement of paper PMC10307832

How the values were obtained:
Assay in all cases: relative viability (nuclei count vs DMSO), 5 days (fraction); higher = more cells survive
CAL-12T = system: CAL-12T
Method in brief: (§1)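 Lung cancer cell lines were seeded in 1536-well plates and dosed by pin tool the next day, with either a single drug or a fixed anchor-drug dose combined with five library-drug doses (not always all listed) spaced in √10 steps. Five days later, one step fixed the cells and stained their nuclei (final 0.05% Triton X-100, 1% formaldehyde, 1 ug/ml Hoechst), and nuclei were counted on 4× images. Relative viability is the nuclei count in treated wells divided by the count in vehicle wells, and each value is the median of duplicate plates.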

COR-L 105 = system: COR-L 105
Method in brief: as §1

H3255 = system: H3255
Method in brief: as §1

HARA = system: HARA
Method in brief: as §1

HCC-15 = system: HCC-15
Method in brief: as §1

HCC-366 = system: HCC-366
Method in brief: as §1

LC-2-ad = system: LC-2-ad
Method in brief: as §1

LU99A = system: LU99A
Method in brief: as §1

NCI-H1437 = system: NCI-H1437
Method in brief: as §1

NCI-H1648 = system: NCI-H1648
Method in brief: as §1

NCI-H1666 = system: NCI-H1666
Method in brief: as §1

NCI-H1734 = system: NCI-H1734
Method in brief: as §1

NCI-H1915 = system: NCI-H1915
Method in brief: as §1

NCI-H1944 = system: NCI-H1944
Method in brief: as §1

NCI-H2347 = system: NCI-H2347
Method in brief: as §1

NCI-H460 = system: NCI-H460
Method in brief: as §1

NCI-H650 = system: NCI-H650
Method in brief: as §1

NCI-H727 = system: NCI-H727
Method in brief: as §1

NCI-H838 = system: NCI-H838
Method in brief: as §1

PC-14 = system: PC-14
Method in brief: as §1

RERF-LC-KJ = system: RERF-LC-KJ
Method in brief: as §1

SW 900 = system: SW 900
Method in brief: as §1

## Oc1nc(-c2ccc(C(F)(F)F)cc2)nc2c1CSCC2 [XAV939] + CC(=O)Nc1cccc(-n2c(=O)n(C3CC3)c(=O)c3c(Nc4ccc(I)cc4F)n(C)c(=O)c(C)c32)c1 [Trametinib] (partner 0.02 µM)
CAL-12T; first compound 0.08 µM
  relative viability: 0.346
CAL-12T; first compound 0.253 µM
  relative viability: 0.257
CAL-12T; first compound 0.8 µM
  relative viability: 0.272
CAL-12T; first compound 2.53 µM
  relative viability: 0.223
COR-L 105; first compound 0.08 µM
  relative viability: 0.43
COR-L 105; first compound 0.253 µM
  relative viability: 0.433
COR-L 105; first compound 0.8 µM
  relative viability: 0.4
COR-L 105; first compound 2.53 µM
  relative viability: 0.414
H3255; first compound 0.08 µM
  relative viability: 0.674
H3255; first compound 0.253 µM
  relative viability: 0.528
H3255; first compound 0.8 µM
  relative viability: 0.62
H3255; first compound 2.53 µM
  relative viability: 0.425
HARA; first compound 0.08 µM
  relative viability: 0.925
HARA; first compound 0.253 µM
  relative viability: 0.531
HARA; first compound 0.8 µM
  relative viability: 0.892
HARA; first compound 2.53 µM
  relative viability: 0.506
HCC-15; first compound 0.08 µM
  relative viability: 0.416
HCC-15; first compound 0.253 µM
  relative viability: 0.342
HCC-15; first compound 0.8 µM
  relative viability: 0.376
HCC-15; first compound 2.53 µM
  relative viability: 0.304
HCC-366; first compound 0.08 µM
  relative viability: 0.307
HCC-366; first compound 0.253 µM
  relative viability: 0.28
HCC-366; first compound 0.8 µM
  relative viability: 0.327
HCC-366; first compound 2.53 µM
  relative viability: 0.259
LC-2-ad; first compound 0.08 µM
  relative viability: 0.932
LC-2-ad; first compound 0.253 µM
  relative viability: 0.899
LC-2-ad; first compound 0.8 µM
  relative viability: 0.922
LC-2-ad; first compound 2.53 µM
  relative viability: 0.79
LU99A; first compound 0.08 µM
  relative viability: 0.678
LU99A; first compound 0.253 µM
  relative viability: 0.521
LU99A; first compound 0.8 µM
  relative viability: 0.524
LU99A; first compound 2.53 µM
  relative viability: 0.542
NCI-H1437; first compound 0.08 µM
  relative viability: 0.499
NCI-H1437; first compound 0.253 µM
  relative viability: 0.407
NCI-H1437; first compound 0.8 µM
  relative viability: 0.518
NCI-H1437; first compound 2.53 µM
  relative viability: 0.29
NCI-H1648; first compound 0.253 µM
  relative viability: 0.438
NCI-H1648; first compound 0.8 µM
  relative viability: 0.606
NCI-H1648; first compound 2.53 µM
  relative viability: 0.361
NCI-H1666; first compound 0.08 µM
  relative viability: 1
NCI-H1666; first compound 0.253 µM
  relative viability: 0.834
NCI-H1666; first compound 0.8 µM
  relative viability: 0.754
NCI-H1666; first compound 2.53 µM
  relative viability: 0.871
NCI-H1734; first compound 0.08 µM
  relative viability: 0.77
NCI-H1734; first compound 0.253 µM
  relative viability: 0.616
NCI-H1734; first compound 0.8 µM
  relative viability: 0.593
NCI-H1734; first compound 2.53 µM
  relative viability: 0.647
NCI-H1915; first compound 0.08 µM
  relative viability: 0.359
NCI-H1915; first compound 0.253 µM
  relative viability: 0.296
NCI-H1915; first compound 0.8 µM
  relative viability: 0.276
NCI-H1915; first compound 2.53 µM
  relative viability: 0.294
NCI-H1944; first compound 0.08 µM
  relative viability: 0.418
NCI-H1944; first compound 0.253 µM
  relative viability: 0.388
NCI-H1944; first compound 0.8 µM
  relative viability: 0.412
NCI-H1944; first compound 2.53 µM
  relative viability: 0.292
NCI-H2347; first compound 0.08 µM
  relative viability: 0.302
NCI-H2347; first compound 0.253 µM
  relative viability: 0.278
NCI-H2347; first compound 0.8 µM
  relative viability: 0.308
NCI-H2347; first compound 2.53 µM
  relative viability: 0.236
NCI-H460; first compound 0.08 µM
  relative viability: 0.164
NCI-H460; first compound 0.253 µM
  relative viability: 0.0959
NCI-H460; first compound 0.8 µM
  relative viability: 0.124
NCI-H460; first compound 2.53 µM
  relative viability: 0.111
NCI-H650; first compound 0.08 µM
  relative viability: 1.08
NCI-H650; first compound 0.253 µM
  relative viability: 1.05
NCI-H650; first compound 0.8 µM
  relative viability: 1
NCI-H650; first compound 2.53 µM
  relative viability: 0.92
NCI-H727; first compound 0.08 µM
  relative viability: 0.361
NCI-H727; first compound 0.8 µM
  relative viability: 0.398
NCI-H727; first compound 2.53 µM
  relative viability: 0.403
NCI-H838; first compound 0.08 µM
  relative viability: 0.595
NCI-H838; first compound 0.253 µM
  relative viability: 0.441
NCI-H838; first compound 0.8 µM
  relative viability: 0.392
NCI-H838; first compound 2.53 µM
  relative viability: 0.39
PC-14; first compound 0.08 µM
  relative viability: 0.833
PC-14; first compound 0.253 µM
  relative viability: 0.707
PC-14; first compound 0.8 µM
  relative viability: 0.671
PC-14; first compound 2.53 µM
  relative viability: 0.597
RERF-LC-KJ; first compound 0.08 µM
  relative viability: 0.859
RERF-LC-KJ; first compound 0.253 µM
  relative viability: 0.733
RERF-LC-KJ; first compound 0.8 µM
  relative viability: 0.768
RERF-LC-KJ; first compound 2.53 µM
  relative viability: 0.603
SW 900; first compound 0.253 µM
  relative viability: 0.579
SW 900; first compound 0.8 µM
  relative viability: 0.955
SW 900; first compound 2.53 µM
  relative viability: 0.495
